{"source": "patent US8293240B2", "about": "“Method of treating drug-resistant cancer” (The Regents of the University of Colorado, priority 2004, dated 2012)", "key": {"[1]": {"tested_on": "RD cells (rhabdomyosarcoma cells-not drug resistant)", "test": "percent death of RD cells (flow cytometry, live versus dead)", "assay_type": "cell-based", "method": "The cells were cultured at a concentration of 0.5 to 1 million cells per ml. Cells were untreated or treated with or 2-deoxy-D-glucose and/or etomoxir and/or antibodies to UCP2 and used at dilutions or concentrations as indicated on the figure. The cells were cultured in the presence or absence of etomoxir at 100 micrograms/ml for 24 hours followed by treatment with antibody as indicated for an additional 24 or 48 hours (i.e. totals of 48 hours or 72 hours respectively). Cells were harvested and analyzed by flow cytometry. Each dot on the dot plot represents one cell. Five thousand cells were assessed for forward scatter (FS), as a function of cell size, versus side scatter (SS), as a function of cellular granularity. The upper elipse represents live cells by these criterion and the lower elipse in each dot plot represents the dead cells.\nGating is a tool provided by Cell Quest software and allows for the analysis of a certain population of cells. Gating around both the live and dead cell populations gave a percent of the cell numbers that was in each population. After the gates were drawn, a percent value of dead cells was calculated by taking the number of dead cells divided by the number of total cells and multiplying by one hundred.\nReferring to FIGS. 29 and 30, RD cells (rhabdomyosarcoma cells-not drug resistant), cultured as described above under “Materials and Methods” were untreated or treated with etomoxir, with 2-deoxy-D-glucose, or with a combination of etomoxir and 2-deoxy-D-glucose, at concentrations indicated in FIG. 29 for 24 hours. Cells were harvested and analyzed by flow cytometry.\nReferring to FIGS. 33 and 34, RD cells, cultured as described in Example 22, were untreated or treated with etomoxir, with 2-deoxy-D-glucose, or with a combination of etomoxir and 2-deoxy-D-glucose, at concentrations indicated in FIG. 33 for 48 hours. Cells were harvested and analyzed by flow cytometry.\nReferring to FIGS. 37 and 38, RD cells, cultured as described in Example 22, were treated with anti-UCP2 antibody and otherwise untreated or treated simultaneously with etomoxir, 2-deoxy-D-glucose, or both, at concentrations indicated in FIG. 37 for 48 hours. Cells were harvested and analyzed by flow cytometry."}, "L1210 DDP cells": {"tested_on": "L1210 DDP cells", "test": "mitochondrial membrane potential (MitoTracker), L1210 DDP", "assay_type": "cell-based", "conditions": "24 hours of incubation, FIG. 11", "protocol": "Flow Cytometry. Cells were harvested, counted, and resuspended at 10^6 cells/100 μl of PBS containing 2.5% fetal calf serum in preparation for flow cytometric analysis. Cells were stained for intracellular H202 using 6-carboxy-2′,7′-dichlorodihydrofluorescein diacetate (DCF-DA, Molecular Probes, Eugene, Oreg.). Briefly, cells were incubated at 37° with 1 mM DCF-DA for 20 minutes, washed twice in PBS containing 2.5% fetal calf serum and analyzed flow cytometrically. Mitochondrial membrane potential was assessed using Mitotracker Red (CM-H2XROS, Molecular Probes, Eugene, Oreg.). […] The cells were incubated at 37° for 20 minutes, washed twice in PBS containing 2.5% fetal calf serum and analyzed flow cytometrically. Data were acquired on a Coulter Elite Epics or Excel flow cytometer (Coulter, Hialeah, Fla.) and analyzed with CellQuest software, (Becton Dickinson, San Jose, Calif.). […] Each sample population was classified for cell size (forward scatter) and complexity (side scatter), gated on a population of interest and evaluated using 5,000 cells. […]\nWe measured the effects of etomoxir on metabolism by measuring mitochondrial membrane potential with a fluorescent dye (Mitotracker Red, Molecular Probes, Eugene, Oreg.) which fluoresces as a function of mitochondrial potential. […]"}, "[2]": {"tested_on": "human leukemia HL60 cells", "test": "DCFDA staining, HL60", "assay_type": "cell-based", "conditions": "HL60, 24 hours of incubation, FIG. 14", "protocol": "(§1) Flow Cytometry. Cells were harvested, counted, and resuspended at 10^6 cells/100 μl of PBS containing 2.5% fetal calf serum in preparation for flow cytometric analysis. Cells were stained for intracellular H202 using 6-carboxy-2′,7′-dichlorodihydrofluorescein diacetate (DCF-DA, Molecular Probes, Eugene, Oreg.). Briefly, cells were incubated at 37° with 1 mM DCF-DA for 20 minutes, washed twice in PBS containing 2.5% fetal calf serum and analyzed flow cytometrically. Mitochondrial membrane potential was assessed using Mitotracker Red (CM-H2XROS, Molecular Probes, Eugene, Oreg.). The cells were resuspended in PBS containing 2.5% fetal calf serum containing a final concentration of 0.5 micromolar Mitotracker dye. The cells were incubated at 37° for 20 minutes, washed twice in PBS containing 2.5% fetal calf serum and analyzed flow cytometrically. Data were acquired on a Coulter Elite Epics or Excel flow cytometer (Coulter, Hialeah, Fla.) and analyzed with CellQuest software, (Becton Dickinson, San Jose, Calif.). […] Each sample population was classified for cell size (forward scatter) and complexity (side scatter), gated on a population of interest and evaluated using 5,000 cells. […]\nThe effects of etomoxir on human leukemia HL60 cells was determined. […]"}, "[3]": {"tested_on": "human leukemia RU937 cells", "test": "mitochondrial membrane potential (MitoTracker), RU937", "assay_type": "cell-based", "conditions": "RU937, 24 hours of incubation, FIG. 13", "protocol": "as §1\nThe effects of etomoxir on human leukemia RU937 cells was determined. […]"}, "B16F1 melanoma cells [4]": {"tested_on": "B16F1 melanoma cells", "test": "intracellular reactive intermediates (DCFDA) in B16F1 melanoma cells", "assay_type": "cell-based, mouse", "conditions": "B16F1, 48 hours, FIG. 19", "protocol": "Metabolic Activity Assay. Cells were prepared as previously described. The specific metabolic dye was added and mixed into the cell suspension. This plate was then placed into the 37° incubator for a 20-minute incubation. After incubation, the cells were centrifuged at 300×g for 5 minutes, and the supernatant was removed. The cells were then washed once with PBS/2.5% FBS and transferred into flow cytometric tubes containing 500 μL of PBS/2.5% FBS for analysis.\n5-(and -6)-Chloromethyl-2′,7′-dichlorodihydrofluorescein diacetate (CMH2DCFDA) (Molecular Probes). One vial of DCFda provides 10 tests and contains 50 μg. This is unstable and can't be stored. Therefore, each vial was opened and 43 μL of DMSO was added. […]\nB16F1 melanoma cells were cultured at a concentration of 0.5 to 1 million cells per ml. Cells were harvested and analyzed by flow cytometry. […] Five thousand cells were assessed for forward scatter (FS), as a function of cell size, versus side scatter (SS), as a function of cellular granularity. […]\nB16F1 melanoma cells of Example 12 were untreated or treated with etomoxir at the indicated concentrations for 48 hours. Cells were harvested, stained with DCFDA as described in Materials and Methods, and analyzed by flow cytometry. The value of DCFDA was then calculated as described in Materials and Methods."}, "B16F1 melanoma cells [5]": {"tested_on": "B16F1 melanoma cells", "test": "cell surface Fas (CD95) expression on B16F1 melanoma cells", "assay_type": "cell-based, mouse", "conditions": "48 hours", "protocol": "Cell Surface Staining. Non-permeabilized cells were stained with antibodies to the cell surface receptors Fas (CD95) (Pharmingen) or with antibodies to uncoupling proteins (anti-UCP2 antibody) (Alpha Diagnostic International). Antibodies for both the isotype control and actual stain were added to the cell suspension, mixed, and then placed on ice for and incubation of 25 minutes in the dark. Subsequently the cells were centrifuged at 300×g for 5 minutes and the supernatant removed. The cells were washed one time with 100 μL of PBS/2.5% FBS and then transferred into flow cyotmetric tubes containing 500 μL of PBS/2.5% FBS for analysis.\nB16F1 melanoma cells were cultured at a concentration of 0.5 to 1 million cells per ml. Cells were harvested and analyzed by flow cytometry. Dot plots are shown in FIG. 15 as functions of live versus dead cells. Each dot on the dot plot represents one cell. Five thousand cells were assessed for forward scatter (FS), as a function of cell size, versus side scatter (SS), as a function of cellular granularity. […]\nReferring to FIGS. 17 and 18, B16F1 melanoma cells of Example 12 were untreated or treated with etomoxir at the indicated concentrations for 48 hours. Cells were harvested, stained with fluorochrome conjugated anti-Fas antibody (Pharmingen) and analyzed by flow cytometry."}}}
{"smiles": "CCOC(=O)C1(CCCCCCOc2ccc(Cl)cc2)CO1", "note": "(centres unmarked) [etomoxir, 2-(6-(4-chlorophenoxy)-hexyl)-oxirane-2-carboxylic acid ethyl ester]", "values": [{"measurement": "percent of cell deaths", "setting": "[1]; RD cells after 24 hours", "result": 57, "unit": "%"}, {"measurement": "percent of cell deaths", "setting": "[1]; RD cells after 48 hours", "result": 64, "unit": "%"}, {"measurement": "mitochondrial membrane potential (MitoTracker)", "setting": "L1210 DDP cells", "result": "increase the mitochondrial membrane potential"}, {"measurement": "reactive oxygen intermediates, DCFDA staining", "setting": "[2]", "result": "increases in reactive oxygen intermediates"}, {"measurement": "mitochondrial membrane potential (MitoTracker)", "setting": "[3]", "result": "increased the levels of mitochondrial membrane potential"}, {"measurement": "reactive oxygen species as measured by DCFDA", "setting": "B16F1 melanoma cells [4]", "result": "dose dependent increase"}, {"measurement": "cell surface Fas expression", "setting": "B16F1 melanoma cells [5]; B16F1 dead cell population, FIG. 18", "result": "dose dependent increase in cell surface Fas expression"}, {"measurement": "cell surface Fas expression", "setting": "B16F1 melanoma cells [5]; B16F1 live cell population, FIG. 17", "result": "dose dependent increase in cell surface Fas expression"}]}
